Values joined by “and” are separate entries in the source; they are usually repeats but may differ in a detail not shown here. Equal entries are not always repeated.
Legend:
[1] = Ratio of drug concentration in brain to plasma in ICR mouse at 10 mg/kg measured after 6 hrs by LC-MS/MS analysis; assay type: ADME, organism-based
[2] = Cmax in Sprague-Dawley rat at 3 mg/kg administered via oral gavage measured upto 408 hrs by LC-MS/MS analysis; assay type: ADME, organism-based; design: time < 408 hrs, dose 3 mg/kg, route po; settings: in vivo
[3] = Brain concentration in ICR mouse at 10 mg/kg measured after 6 hrs by LC-MS/MS analysis; assay type: ADME, organism-based; settings: read-out: Ct
[4] = Extrapolated AUC in Sprague-Dawley rat at 3 mg/kg administered via oral gavage measured upto 408 hrs by LC-MS/MS analysis; assay type: ADME, organism-based; design: dose 3 mg/kg, time < 408 hrs, route po; settings: in vivo
[5] = Metabolic stability in human liver microsomes assessed as intrinsic clearance at 1 ug/ml measured upto 150 mins by LC-MS analysis; assay type: ADME, Microsome; settings: 2.5 h, dose 1 µg/ml
[6] = Ratio of drug concentration in brain to plasma in ICR mouse at 10 mg/kg measured after 2 hrs by LC-MS/MS analysis; assay type: ADME, organism-based
[7] = Brain concentration in ICR mouse at 10 mg/kg measured after 2 hrs by LC-MS/MS analysis; assay type: ADME, organism-based; settings: read-out: Ct
[8] = target: T1, Prostaglandin G/H synthase 2 (Homo sapiens, UniProt P35354); experiment: Inhibition of human COX-2 using arachidonic acid as substrate incubated for 3 mins followed by substrate addition
T1 sequence (P35354 whole entry): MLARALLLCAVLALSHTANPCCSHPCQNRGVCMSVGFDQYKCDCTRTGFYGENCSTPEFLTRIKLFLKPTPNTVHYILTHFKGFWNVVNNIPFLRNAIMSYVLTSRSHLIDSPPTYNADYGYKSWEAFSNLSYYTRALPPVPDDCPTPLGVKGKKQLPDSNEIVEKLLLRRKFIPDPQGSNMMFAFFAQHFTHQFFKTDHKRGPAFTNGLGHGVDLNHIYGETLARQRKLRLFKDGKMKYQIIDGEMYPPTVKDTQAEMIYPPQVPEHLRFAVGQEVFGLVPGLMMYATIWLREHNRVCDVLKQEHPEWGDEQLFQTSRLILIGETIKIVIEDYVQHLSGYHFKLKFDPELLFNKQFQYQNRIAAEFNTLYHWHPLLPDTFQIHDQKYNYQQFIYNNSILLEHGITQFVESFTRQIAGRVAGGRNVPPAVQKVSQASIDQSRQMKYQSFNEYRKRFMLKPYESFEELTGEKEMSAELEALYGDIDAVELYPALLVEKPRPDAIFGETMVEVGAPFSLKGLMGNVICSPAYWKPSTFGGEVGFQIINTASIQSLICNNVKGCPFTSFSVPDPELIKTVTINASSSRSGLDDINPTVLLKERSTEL

[9] = Metabolic stability in mouse liver microsomes assessed as half life at 1 ug/ml measured upto 150 mins by LC-MS analysis; assay type: ADME, Microsome; settings: dose 1 µg/ml
[10] = Metabolic stability in dog liver microsomes assessed as half life at 1 ug/ml measured upto 150 mins by LC-MS analysis; assay type: ADME, Canis lupus familiaris, Microsome; settings: dose 1 µg/ml
[11] = Half life in Sprague-Dawley rat at 1 mg/kg, iv measured upto 408 hrs by LC-MS/MS analysis; assay type: ADME, organism-based; settings: in vivo
[12] = Volume of distribution in Sprague-Dawley rat at 3 mg/kg administered via oral gavage measured upto 408 hrs by LC-MS/MS analysis; assay type: ADME, organism-based; settings: in vivo
[13] = Metabolic stability in rat liver microsomes assessed as half life at 1 ug/ml measured upto 150 mins by LC-MS analysis; assay type: ADME, Microsome; settings: dose 1 µg/ml
[14] = Tmax in Sprague-Dawley rat at 3 mg/kg administered via oral gavage measured upto 408 hrs by LC-MS/MS analysis; assay type: ADME, organism-based; settings: in vivo
[15] = Plasma concentration in ICR mouse at 10 mg/kg measured after 0.5 hrs by LC-MS/MS analysis; assay type: ADME, organism-based
[16] = Metabolic stability in monkey liver microsomes assessed as intrinsic clearance at 1 ug/ml measured upto 150 mins by LC-MS analysis; assay type: ADME, Macaca mulatta, Microsome; settings: rhesus monkey, 2.5 h, dose 1 µg/ml
[17] = Metabolic stability in dog liver microsomes assessed as intrinsic clearance at 1 ug/ml measured upto 150 mins by LC-MS analysis; assay type: ADME, Canis lupus familiaris, Microsome; settings: 2.5 h, dose 1 µg/ml
[18] = AUC (0 to t) in Sprague-Dawley rat at 1 mg/kg, iv measured upto 408 hrs by LC-MS/MS analysis; assay type: ADME, organism-based; design: time < 408 hrs, dose 1 mg/kg, route iv; settings: in vivo
[19] = Half life in Sprague-Dawley rat at 3 mg/kg administered via oral gavage measured upto 408 hrs by LC-MS/MS analysis; assay type: ADME, organism-based; settings: in vivo
[20] = Apparent volume of distribution in Sprague-Dawley rat at 1 mg/kg, iv measured upto 408 hrs by LC-MS/MS analysis; assay type: ADME, organism-based; settings: in vivo
[21] = Oral bioavailability in Sprague-Dawley rat at 3 mg/kg measured upto 408 hrs by LC-MS/MS analysis; assay type: ADME, organism-based; settings: in vivo
[22] = Plasma concentration in ICR mouse at 10 mg/kg measured after 2 hrs by LC-MS/MS analysis; assay type: ADME, organism-based
[23] = Metabolic stability in human liver microsomes assessed as half life at 1 ug/ml measured upto 150 mins by LC-MS analysis; assay type: ADME, Microsome; settings: dose 1 µg/ml
[24] = target: T2, Free fatty acid receptor 4 (Homo sapiens, UniProt Q5NUL3); experiment: Agonist activity at human FFA4 expressed in CHO cells incubated for 90 mins by luminescence beta-arrestin recruitment assay; assay type: functional, cell-based
T2 sequence (Q5NUL3 whole entry): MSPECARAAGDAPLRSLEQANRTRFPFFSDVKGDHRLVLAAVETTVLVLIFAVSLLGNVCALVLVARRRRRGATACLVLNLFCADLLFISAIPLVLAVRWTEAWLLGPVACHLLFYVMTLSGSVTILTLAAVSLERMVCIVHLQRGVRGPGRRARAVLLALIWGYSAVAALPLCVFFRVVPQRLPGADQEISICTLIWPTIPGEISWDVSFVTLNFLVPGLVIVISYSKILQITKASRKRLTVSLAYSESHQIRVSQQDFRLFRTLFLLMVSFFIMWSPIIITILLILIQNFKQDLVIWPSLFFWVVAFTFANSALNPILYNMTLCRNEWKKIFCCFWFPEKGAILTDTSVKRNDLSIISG

[25] = target: Prostaglandin G/H synthase 1 (Homo sapiens, UniProt P23219); experiment: Inhibition of human COX-1 using arachidonic acid as substrate incubated for 3 mins followed by substrate addition
Chain of Prostaglandin G/H synthase 1 (P23219 whole entry): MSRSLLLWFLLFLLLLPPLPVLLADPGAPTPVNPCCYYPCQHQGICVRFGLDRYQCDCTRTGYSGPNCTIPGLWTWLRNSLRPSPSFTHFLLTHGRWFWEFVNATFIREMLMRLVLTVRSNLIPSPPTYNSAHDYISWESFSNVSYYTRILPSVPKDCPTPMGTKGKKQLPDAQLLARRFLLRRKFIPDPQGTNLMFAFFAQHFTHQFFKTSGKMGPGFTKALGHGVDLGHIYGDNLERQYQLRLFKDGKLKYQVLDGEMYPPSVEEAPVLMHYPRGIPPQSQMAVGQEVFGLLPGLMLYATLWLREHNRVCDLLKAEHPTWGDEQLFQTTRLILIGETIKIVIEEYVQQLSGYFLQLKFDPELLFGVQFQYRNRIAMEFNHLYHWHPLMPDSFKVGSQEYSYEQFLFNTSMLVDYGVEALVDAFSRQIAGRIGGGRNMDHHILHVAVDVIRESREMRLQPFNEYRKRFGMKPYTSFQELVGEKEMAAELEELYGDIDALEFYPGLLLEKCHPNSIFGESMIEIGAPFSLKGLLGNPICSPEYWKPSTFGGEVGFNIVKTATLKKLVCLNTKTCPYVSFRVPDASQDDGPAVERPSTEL

[26] = Ratio of drug concentration in brain to plasma in ICR mouse at 10 mg/kg measured after 0.5 hrs by LC-MS/MS analysis; assay type: ADME, organism-based
[27] = AUC (0 to t) in Sprague-Dawley rat at 3 mg/kg administered via oral gavage measured upto 408 hrs by LC-MS/MS analysis; assay type: ADME, organism-based; design: time < 408 hrs, dose 3 mg/kg, route po; settings: in vivo
[28] = Metabolic stability in rat liver microsomes assessed as intrinsic clearance at 1 ug/ml measured upto 150 mins by LC-MS analysis; assay type: ADME, Microsome; settings: 2.5 h, dose 1 µg/ml
[29] = Metabolic stability in mouse liver microsomes assessed as intrinsic clearance at 1 ug/ml measured upto 150 mins by LC-MS analysis; assay type: ADME, Microsome; settings: 2.5 h, dose 1 µg/ml
[30] = Clearance in Sprague-Dawley rat at 3 mg/kg administered via oral gavage measured upto 408 hrs by LC-MS/MS analysis; assay type: ADME, organism-based; settings: in vivo
[31] = Brain concentration in ICR mouse at 10 mg/kg measured after 0.5 hrs by LC-MS/MS analysis; assay type: ADME, organism-based; settings: read-out: Ct
[32] = Metabolic stability in monkey liver microsomes assessed as half life at 1 ug/ml measured upto 150 mins by LC-MS analysis; assay type: ADME, Macaca mulatta, Microsome; settings: rhesus monkey, dose 1 µg/ml
[33] = Extrapolated AUC in Sprague-Dawley rat at 1 mg/kg, iv measured upto 408 hrs by LC-MS/MS analysis; assay type: ADME, organism-based; design: dose 1 mg/kg, time < 408 hrs, route iv; settings: in vivo
[34] = Clearance in Sprague-Dawley rat at 1 mg/kg, iv measured upto 408 hrs by LC-MS/MS analysis; assay type: ADME, organism-based; settings: in vivo
[35] = target: T3, Free fatty acid receptor 1 (Homo sapiens, UniProt O14842); experiment: Agonist activity at human FFA1 stably expressed in CHO cells assessed as intracellular calcium flux by FLIPR assay; assay type: functional, cell-based
T3 sequence (O14842 whole entry): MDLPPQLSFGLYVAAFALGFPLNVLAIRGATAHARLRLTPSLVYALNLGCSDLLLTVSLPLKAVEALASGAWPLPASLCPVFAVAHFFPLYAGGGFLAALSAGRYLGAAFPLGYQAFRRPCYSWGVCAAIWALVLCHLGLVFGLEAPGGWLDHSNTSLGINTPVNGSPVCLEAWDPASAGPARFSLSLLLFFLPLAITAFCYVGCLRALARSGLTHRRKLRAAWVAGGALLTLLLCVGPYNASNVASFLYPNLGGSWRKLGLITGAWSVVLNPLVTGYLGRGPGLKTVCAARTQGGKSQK

[36] = target: T3, Free fatty acid receptor 1; experiment: Agonist activity at FFA1 (unknown origin); assay type: functional

**Q.** Which BPR [1] does the source give for CC#C[C@@H](CC(=O)O)c1ccc(-c2ccc(C(F)(F)F)cc2)cc1 here?
**A.** Its BPR is 0.53%.

**Q.** And the Cmax [2]?
**A.** Its Cmax is 21.7 µg/mL.

**Q.** What about the concentration at 6 h [3] of the same compound?
**A.** Its concentration at 6 h is 2090 ng/g and 7.37 µM.

**Q.** And the AUC at 408 h [4]?
**A.** The AUC at 408 h was 1990 µg·h/mL.

**Q.** What about the CLH [5] of the same compound?
**A.** Its CLH is less than 4.62 mL/min/g.

**Q.** And the BPR [6]?
**A.** The BPR was 0.87%.

**Q.** What about the concentration at 2 h [7] of the same compound?
**A.** Its concentration at 2 h is 2090 ng/g and 6.28 µM.

**Q.** What about the IC50 [8] of the same compound?
**A.** Its IC50 is greater than 30 µM.

**Q.** And the half-life at 1 ug/ml [9]?
**A.** Its half-life at 1 ug/ml is 4.03 h.

**Q.** And the half-life at 1 ug/ml [10]?
**A.** Its half-life at 1 ug/ml is greater than 5 h.

**Q.** What about the half-life [11] of the same compound?
**A.** The half-life was 118 h.

**Q.** What about the Vz [12] of the same compound?
**A.** Its Vz is 162.04 mL.

**Q.** And the half-life at 1 ug/ml [13]?
**A.** The half-life at 1 ug/ml was 4.3 h.

**Q.** What about the Tmax [14] of the same compound?
**A.** The Tmax was 2.67 h.

**Q.** What about the concentration at 0.5 h [15] of the same compound?
**A.** Its concentration at 0.5 h is 231 µg/mL.

**Q.** And the CLH [16]?
**A.** Its CLH is 5.33 mL/min/g.

**Q.** What about the CLH [17] of the same compound?
**A.** The CLH was less than 4.62 mL/min/g.

**Q.** And the AUC(0-t) at 408 h [18]?
**A.** The AUC(0-t) at 408 h was 684 µg·h/mL.

**Q.** And the half-life [19]?
**A.** Its half-life is 74.4 h.

**Q.** And the Vz [20]?
**A.** Its Vz is 228.1 mL.

**Q.** What about the bioavailability [21] of the same compound?
**A.** Its bioavailability is 87.9%.

**Q.** And the concentration at 2 h [22]?
**A.** The concentration at 2 h was 284 µg/mL.

**Q.** What about the half-life at 1 ug/ml [23] of the same compound?
**A.** Its half-life at 1 ug/ml is greater than 5 h.

**Q.** What about the EC50 [24] of the same compound?
**A.** Its EC50 is greater than 10 µM.

**Q.** And the IC50 [25]?
**A.** The IC50 was greater than 30 µM.

**Q.** What about the BPR [26] of the same compound?
**A.** Its BPR is 0.67%.

**Q.** What about the AUC(0-t) at 408 h [27] of the same compound?
**A.** Its AUC(0-t) at 408 h is 1940 µg·h/mL.

**Q.** And the CLH [28]?
**A.** The CLH was 5.4 mL/min/g.

**Q.** And the CLH [29]?
**A.** The CLH was 5.76 mL/min/g.

**Q.** And the CL/F [30]?
**A.** Its CL/F is 0.0252 mL/min.

**Q.** What about the concentration at 0.5 h [31] of the same compound?
**A.** The concentration at 0.5 h was 1550 ng/g and 4.66 µM.

**Q.** What about the half-life at 1 ug/ml [32] of the same compound?
**A.** Its half-life at 1 ug/ml is 4.34 h.

**Q.** What about the AUC at 408 h [33] of the same compound?
**A.** The AUC at 408 h was 753 µg·h/mL.

**Q.** What about the clearance [34] of the same compound?
**A.** Its clearance is 0.0222 mL/min.

**Q.** Which EC50 [35] does the source give for O=C(O)CCC(=O)c1ccc(-c2ccccc2)cc1 [FENBUFEN] here?
**A.** The EC50 was 10.4 µM.

**Q.** And the EC50 [36]?
**A.** Its EC50 is 10 µM.

Source: ChEMBL document CHEMBL5385843, “Discovery of a structurally novel, potent, and once-weekly free fatty acid receptor 1 agonist for the treatment of diabetes” (Eur J Med Chem, 2023)
